Test results published in US20230322837A1, “PREPARATION METHOD FOR AND APPLICATION OF CLASS OF STELLATE BIFUNCTIONAL COMPOUNDS TARGETING SPIKE PROTEIN AGAINST RESPIRATORY TRACT INFECTION VIRUS AND SALT THEREOF” (priority 2020, published 2023).
Like-named read-outs stand apart in the source and are kept apart here.

How the values were obtained:
[1] = tested on: Lentivirus-NC virus infection of H1299 cells; settings: different virus titers (MOI 5, 10, 20), FIGS. 7 and 9
Protocol: H1299 Human lung cancer cells, cultured with RPMI-1640 10% fetal bovine serum in an incubator with 5% CO2 and saturated humidity at 37° C. • RPMI-1640 + 10% Fetal Bovine Serum • PBS (Life Science Products&Services) • Trypsin-EDTA Solution (Gibco) • 24-well plate (Corning) • Lentivirus-NC virus solution (GenePharma, 1×10^9 TU/mL)
Principles and procedures for virus infection experiment • 1.

plasma coagulation [2] = settings: in vitro, rabbit platelet poor plasma, x±s, n = 3
Protocol: (§1) Coagulation is a complex process involving a series of coagulation factors, which essentially include two pathways, “intrinsic coagulation pathway” and “extrinsic coagulation pathway”. Activated partial thromboplastin time (APTT), prothrombin time (PT), and thrombin time (TT) are adopted usually in the laboratory to evaluate the anticoagulant effect.
(§2) New Zealand rabbits were anaesthetized with chloral hydrate, heart puncture was conducted to collect blood into an anticoagulant tube containing ⅒ vol 3.8% sodium citrate, followed by centrifuging at 3000 rpm for 15 min, supernatant was collected to obtain platelet poor plasma which was stored in a refrigerator for later use.
(§3) The compounds were prepared with DMSO to obtain stock solutions with a concentration of 10 mM. Samples to be tested were diluted with normal saline during the test, with a final concentration of 50 µM, 12.5 µM, 3.13 µM, 0.78 µM, 0.20 µM, and 0.05 µM.
TT Assay: 100 µL of prepared plasma was mixed well with 50 µL of the sample mixture to be tested, and pre-heated at 37° C. for 2 min, followed by addition of 50 µL of TT reagent to the mixture and detection to record results of the instrument.
(§4) One-way analysis of variance (One-Way ANOVA) was performed for multi-group comparison; pairwise comparison for means among groups was performed, with Dunnett’s multiple comparisons test in case of homogeneity of variance, and Dunnett’s T3 multiple comparisons test in case of heterogeneity of variance. P <0.05 means statistical significance.

plasma coagulation [3] = settings: in vitro, rabbit platelet poor plasma, x±s, n = 3; remark: listed apart in the source
Protocol: as §1, §2, §3
PT Assay: 50 µL of plasma was mixed well with 20 µL of samples to be tested respectively, the mixture was pre-heated at 37° C. for 2 min, followed by incubation at 37° C. for 3 min, and addition of 100 µL of PT reagent. The mixture was mixed well and tested to record the coagulation time.
as §4

plasma coagulation [4] = settings: for APTT: in vitro, rabbit platelet poor plasma, x±s, n = 3
Protocol: as §1, §2, §3
APTT Assay: 100 µL of plasma was mixed well with 50 µL of samples to tested respectively, the mixture was pre-heated at 37° C. for 2 min, then 50 µL of APTT reagent was added, followed by incubation at 37° C. for 3 min, addition of 50 µL of 0.025 mol/L CaCl2, and detection on an automatic blood coagulation analyzer to record the coagulation time.
as §4

For O=C(Oc1ccc(-c2coc3c(OC(=O)c4cc(O)c(O)c(O)c4)cc(OC(=O)c4cc(O)c(O)c(O)c4)c(OC(=O)c4cc(O)c(O)c(O)c4)c3c2=O)cc1)c1cc(O)c(O)c(O)c1 [Compound 4], the “inhibition of virus infection in cells” value ([1]; 10 µM concentration) was “significantly inhibited virus infection in cells” and the “inhibition of virus infection in cells” value ([1]; 20 µM concentration) was “significantly inhibit virus infection in cells”.
Compound O=C(O)CC1OC(O)C(OC(=O)c2cc(O)c(O)c(O)c2)C(OC(=O)c2cc(O)c(O)c(O)c2)C1OC(=O)c1cc(O)c(O)c(O)c1 (stereo not shown) [Compound 6] has a TT (plasma coagulation [2]; 0.05 µM) of 23.35 ± 0.31 s, a TT (plasma coagulation [2]; 0.20 µM) of 22.90 ± 0.09 s and a TT (plasma coagulation [2]; 0.78 µM) of 23.95 ± 0.07 s. For the same compound, the TT (plasma coagulation [2]; 3.13 µM) was 25.25 ± 0.27 s, the TT (plasma coagulation [2]; 12.50 µM) was 28.89 ± 0.68 s and the TT (plasma coagulation [2]; 50.00 µM) was 38.87 ± 0.77 s. It also gave a PT (plasma coagulation [3]; 0.05 µM) of 9.76 ± 0.85 s, a PT (plasma coagulation [3]; 0.20 µM) of 10.11 ± 0.30 s and a PT (plasma coagulation [3]; 0.78 µM) of 10.54 ± 0.37 s. The PT (plasma coagulation [3]; 3.13 µM) was 12.83 ± 0.19 s, the PT (plasma coagulation [3]; 12.50 µM) was 13.73 ± 0.17 s and the PT (plasma coagulation [3]; 50.00 µM) was 16.66 ± 0.45 s. The “inhibition of virus infection in cells” value ([1]; 20 µM concentration) was “significantly inhibit virus infection in cells”, the “inhibition of plasma coagulation (coagulation indexes APTT, PT, and TT)” value (plasma coagulation [4]; dose gradients 50.00, 12.50, 3.13, 0.78, 0.20, 0.05 (printed µL), covers APTT, PT and TT) was “dose-dependently inhibit plasma coagulation” and the APTT (plasma coagulation [4]; 0.05 µM) was 20.12 ± 0.09 s. It also gave an APTT (plasma coagulation [4]; 0.20 µM) of 24.03 ± 1.05 s, an APTT (plasma coagulation [4]; 0.78 µM) of 26.84 ± 0.79 s and an APTT (plasma coagulation [4]; 3.13 µM) of 37.72 ± 1.83 s. The APTT (plasma coagulation [4]; 12.50 µM) was 75.11 ± 2.58 s and the APTT (plasma coagulation [4]; 50.00 µM) was 106.51 ± 0.94 s.
